Tests used:
[1] = system: miR-210; assay: miR-210 content by RT-qPCR analysis; format: cell-based, human; conditions: K562 cells, 24 h; for inhibition of miR-210 bioavailability (miR-210 content): PNA 2 μM, Figure 5 A and B, relative to pept-1
Procedure: K562 cells were treated with 15 nM mithramycin in the presence of a PNA (2 μM), and after 24 h RNA was isolated and miR-210 was assayed by RT-qPCR analysis. This type of test has been used to evaluate miR content in many studies because it allows the free-miR content to be evaluated. […] Figure 5 A and B reports the obtained data, showing that inhibition of miR bioavailability was induced both with the modified PNA and with the peptide-conjugated one, whereas in the case of PNA1 it was unchanged. […] This might be related to inhibition of pre-miR maturation or to unavailability of the miR to the qRT-PCR analysis due to strong complexation with the PNA. In either case the bioavailability of the miR for targeting other genes should be reduced.
Transfection procedures: Anti-miR-210 PNAs were directly added to the cellular medium to reach the indicated final concentrations. K562 cells were cultured in 24-well plates starting from the initial density of 30 000 cells per mL. MTH was administrated together with anti-miR PNAs.
RNA extraction: Cells were isolated by centrifugation at 1500 rpm for 10 min at 4 °C, washed in PBS and lysed in Tri-reagent (Sigma–Aldrich) according to the manufacturer's instructions. The isolated RNA was washed once with cold ethanol (75 %), dried and dissolved in ultrapure nuclease-free water.
Real-time quantitative PCR: For microRNA quantification with real-time RT-PCR reagents, the primers and probes were obtained from Applied Biosystems. Reverse transcriptase (RT) reactions were performed with a TaqMan MicroRNA Reverse Transcription Kit (Applied Biosystems) for hsa-miR-210, hsa-miR-10a, hsa-miR-93, hsa-miR-99b, hsa-miR-126, hsa-miR-149, hsa-miR-424, hsa-miR-483-5p, hsa-miR-625, hsa-let-7c and the iQTM5 real-time PCR System Instrument (Bio-Rad). Relative expression was calculated by the comparative cycle threshold method and U6 microRNA was used as reference gene to normalise all RNA samples, because it is constant in the assayed samples by miR-profiling and quantitative RT-PCR analysis as previously reported.[25]

[2] = system: RNA2 (mismatched RNA, G→U); assay: Melting temperature (Tm) of PNA:RNA duplexes, single-mismatch RNA; format: binding; conditions: UV absorbance at 260 nm, PBS buffer pH 7 with urea 5 M, strand concentration 5 μM
From the text: (§1) Sequence selectivity is a very important issue in view of the use of PNAs in cellular systems, because partial hybridisation might occur with other unrelated miRNAs or, most importantly, with mRNA targets. We analysed the sequence selectivities of our PNAs with stricter models (DNA2 and RNA2) involving single base mismatches (G→T or G→U) located in the middle of the target sequences. In each case the sequence selectivity was confirmed by significant lowering of the melting temperature. The ranges of ΔTm due to the presence of these single mismatches were 8–21 °C for DNA, with the maximum drop in the case of PNA4 and the minimum observed in that of PNA6. For the latter it should be considered that the mismatch was facing the last chiral monomer, preventing the cooperative effect observed in the case of 2D-modifed highly constrained PNA.[22]
(§2) Measurements of Tm values: The Tm values were determined with a Lambda Bio 20 spectrophotometer and a Peltier PTP6 temperature programmer. Thermal denaturation profiles were measured by monitoring the absorbance at 260 nm from 18 to 90 °C with a heating rate of 1 °C min^−1 and recording every 0.1 °C. Measurement conditions: [PNA]=[DNA] or [RNA]=5 μM in PBS buffer [pH 7.0, NaCl (100 mM), NaH2PO4⋅H2O (10 mM), EDTA (0.1 mM)] with urea (5 M).

[3] = system: DNA1 (full-match antiparallel DNA); assay: Melting temperature (Tm) of PNA:DNA duplexes, full-match DNA; format: binding; conditions: UV absorbance at 260 nm, strand concentration 5 μM; for Tm, DNA1 in urea (5 M): PBS buffer pH 7 (NaCl 100 mM, NaH2PO4 10 mM, EDTA 0.1 mM) with urea 5 M; for Tm, DNA1 in water: PBS buffer pH 7, no urea, 18 to 90 °C at 1 °C/min
Procedure: as §2, with “Measurement conditions: [PNA]=[DNA] or [RNA]=5 μM in PBS buffer [pH 7.0, NaCl (100 mM), NaH2PO4⋅H2O (10 mM), EDTA (0.1 mM)] with urea (5 M).” left out

[4] = system: K562 cells; conditions: cited from earlier work
Procedure: In order to determine the distributions of PNAs within target cells, analysis was performed with a fluorescence microscope. […] Low uptake was also found by fluorescence microscopy with PNA1.[25]

[5] = system: DNA2 (mismatched DNA, G→T); assay: Melting temperature (Tm) of PNA:DNA duplexes, single-mismatch DNA; format: binding; conditions: single mismatch; UV absorbance at 260 nm, PBS buffer pH 7 with urea 5 M, strand concentration 5 μM
From the text: as §1, §2

[6] = system: γ-globin gene expression; assay: γ-globin gene expression by RT-qPCR; format: cell-based, human; conditions: mithramycin-treated (15 nM) K562 cells, PNA 2 μM single administration, 72 h, n=3
Procedure: The strong inhibition of miR-210 by PNA2 and PNA4 might thus result in appreciable reduction of γ-globin gene expression.
Figure 6 A) Effects of pept-1, PNA1, PNA2 and PNA4 molecules (each 2 μM) on γ-globin content in K562 cell cultures for 72 h with MTH (15 nM). Data are reported as arbitrary units relative to cells treated with pept-1 and MTH (average±SD, n=3, *: p<0.05, **: p<0.01). B), C) Effects of treatment (72 h) with pept-1, PNA1, PNA2 and PNA4 molecules on K562 cells induced to erythroid differentiation by MTH (15 nM): B) summary of three independent experiments, C) a representative experiment showing staining of the cells with benzidine.
The nucleotide sequences used for real-time qPCR analysis of γ-globin mRNAs were γ-globin forward primer (5′-TGGCAA GAAGGT GCTGAC TTC-3′), γ-globin reverse primer (5′-TCACTC AGCTGG GCAAAG G-3′) and γ-globin probe (5′-FAM-TGGGAG ATGCCA TAAAGC ACCTGG-TAMRA-3′).[25] The relative expression was calculated by the comparative cycle threshold method with endogenous control human 18S rRNA as reference genes.[25]

[7] = system: RNA1 (target region of miR-210); assay: Melting temperature (Tm) of PNA:RNA duplexes, full-match RNA; format: binding; conditions: UV absorbance at 260 nm, strand concentration 5 μM; for Tm, RNA1 in water: PBS buffer pH 7, no urea; for Tm, RNA1 in urea (5 M): PBS buffer pH 7 with urea 5 M
Procedure: as §2, with “Measurement conditions: [PNA]=[DNA] or [RNA]=5 μM in PBS buffer [pH 7.0, NaCl (100 mM), NaH2PO4⋅H2O (10 mM), EDTA (0.1 mM)] with urea (5 M).” left out

[8] = system: miR-210; conditions: cited from earlier work; for anti-miR activity: K562 cells, previously demonstrated
From the text: (§3) The first step necessary to achieve anti-miR activity in cells is effective cellular uptake.

[9] = system: K562 cells; assay: Mithramycin-induced erythroid differentiation (benzidine-positive cells); format: cell-based, human; conditions: MTH 15 nM, PNA 2 μM, benzidine-positive cells after 5 days of induction, three independent experiments
Procedure: In order to evaluate effects on mithramycin-induced cellular differentiation, K562 cells were treated with MTH in the presence of pept-1, PNA1, PNA2 and PNA4 (each 2 μM). The proportions of benzidine-positive cells were determined after 5 days of induction.
Human cell lines and culture conditions: Human leukaemia K562 cells were cultured under humidified CO2 (5 %)/air in RPMI 1640 medium (Sigma) supplemented with foetal bovine serum (FBS, 10 %, Analitical de Mori, Milan, Italy), penicillin (50 units mL^−1) and streptomycin (50 μg mL^−1).[26] Mithramycin (MTH) was from Sigma. Stock solutions of MTH (100 μM) were stored at −20 °C in the dark and diluted immediately before use. Treatment of K562 cells with MTH was carried out by addition of the appropriate drug concentrations at the beginning of the cultures (cells were seeded at 30 000 mL^−1). The medium was not changed during the induction period. To determine antiproliferative activity, cell growth was studied by determining the cell number per mL with a Z1 Coulter Counter (Coulter Electronics, Hialeah, FL, USA). Erythroid differentiated K562 cells containing haemoglobin were detected by specific reaction with a benzidine/hydrogen peroxide solution as reported elsewhere.[26] The final concentration of benzidine was 0.2 % in glacial acetic acid (5 M) and H2O2 (10 %).

[10] = system: K562 cells; conditions: previously demonstrated; cited from earlier work
From the text: as §3

Row | Substance | inhibition of miR-210 bioavailability (miR-210 content) [1] | Tm, RNA2 in urea (5 M) [2] | Tm, DNA1 in urea (5 M) [3] | Tm, DNA1 in water [3] | uptake by fluorescence microscopy [4] | Tm, DNA2 in urea (5 M) [5] | effect on γ-globin gene expression [6] | Tm, RNA1 in water [7] | Tm, RNA1 in urea (5 M) [7] | anti-miR activity [8] | miR-210 inhibition upon treatment with mithramycin ([1]; PNA 2 μM with MTH 15 nM, relative to pept-1 and MTH) | effect on MTH-induced erythroid differentiation [9] | selectivity of miR-210 inhibition versus other miRs ([8]; previously found) | internalisation within K562 cells [10]
1 | H-CCGCTGTCACACGCACAG-NH2 [PNA1, unmodified achiral "naked" 18-mer PNA targeted against miR-210, reference compound] | unchanged | 62 °C | 70 °C | 85 °C | Low uptake | 58 °C | did not show appreciable effects | 88 °C | 77 °C | no activity |  |  |  | 
2 | H-R8CCGCTGTCACACGCACAG-NH2 [PNA2, 18-mer anti-miR-210 PNA conjugated with octaarginine (R8) peptide, reference compound] | Stronger inhibition | 73 °C | 80 °C | >90 °C |  | 68 °C | inhibited γ-globin gene expression | >90 °C | 88 °C | pronounced anti-miR activity | best results | able to inhibit erythroid differentiation | inhibit miR-210 selectively | efficiently internalised

— PMC3401907, “Cellular Uptakes, Biostabilities and Anti-miR-210 Activities of Chiral Arginine-PNAs in Leukaemic K562 Cells” (Chembiochem, 2012)
